This is an account of results in ChEMBL document CHEMBL1129662, “Investigation of (Oxodioxolenyl)methyl carbamates as nonchiral bioreversible prodrug moieties for chiral amines” (J Med Chem, 1996).

SMILES strings stand for the structures. Bounds are passed on as bounds.

A short description of series [1]: First order rate data for the hydrolysis of compound in 0.05 M phosphate buffer pH 7.4 hydrolysis medium; Half-life in minutes. Type of series: ADME.
Series [2] can be described thus: First order rate data for the hydrolysis of compound in 0.1 M hydrochloric acid pH 1 hydrolysis medium; Half-life in minutes. Type of series: ADME.
The nature of series [3]: First order rate data for the hydrolysis of compound in dog plasma hydrolysis medium; Half-life in minutes. Type of series: ADME, Canis lupus familiaris.
Series [4] in a line: First order rate data for the hydrolysis of compound in rat plasma hydrolysis medium; Half-life in minutes. The format is ADME.
Series [5] is described as follows: First order rate data for the hydrolysis of compound in 0.1 M hydrochloric acid pH 1 hydrolysis medium (adinotes no detectable hydrolysis after 48 h); Half-life in minutes. The format is ADME.

As for `COc1ccc(-c2oc(=O)oc2COC(=O)NCCc2ccc(OC)c(OC)c2)cc1`, the half-life (in general, the time in which the quantity being followed falls by half) in series [1] stood at 3.45 h; in series [2], 53 h; in series [3], 0.233 h; in series [4] it was 0.0333 h.
Take `COc1ccc(CCNC(=O)OCc2oc(=O)oc2-c2ccccc2)cc1OC`: the half-life was determined as 2.23 h in series [1], 59.2 h in series [2], 0.183 h in series [3] and 0.0333 h in series [4].
On to `COc1ccc(CCNC(=O)OCc2oc(=O)oc2C)cc1OC`, for which the half-life is 4.3 h in series [1], over 50 h in series [5] and 0.183 h in series [4].
